# Data published in patent publication US10363239B2, “Method for inhibiting growth of cancer cells” (Pain Therapeutics, Inc., priority 2013, dated 2019).
# Like-named read-outs stand apart in the source and are kept apart here.
# Tests used:
# mu opiate receptor (MOR) = experiment: MOR agonist activity using [35S]GTPγS binding assay in striatal membranes; type: biochemical; conditions: for MOR agonist activity ([35S]GTPγS binding), FLNA-Binding Compound as Agonist 1 μM + BFNA: 1 μM compound + 1 μM β-funaltrexamine
# Summary of the method: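 Striatal membranes (200 μg) were preincubated 5 min at 30 °C in HEPES pH 7.5 with 100 mM NaCl, 1 mM MgCl2 and 0.5 nM [35S]GTPγS, then 5 min more with 0.1–10 μM compound. Gαo was immunoprecipitated and bound radioactivity counted by scintillation.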
# [1] = target: FLNA pentapeptide of SEQ ID NO: 1 (Bn-VAKGL) (Homo sapiens, UniProt P21333); experiment: FITC-NLX-based FLNA screening assay (inhibition of FITC-naloxone binding to Bn-VAKGL on streptavidin plates); conditions: 10 nM FITC-NLX
# [2] = Series C-2, 0.1 μM compound, relative to DAMGO
# [3] = Series C-2, 0.1 μM compound, [35S]GTPγS binding to Gαo, striatal membranes
# [4] = Series C-2, 1 μM compound + 1 μM β-FNA
# [5] = Series C-2, 1 μM compound + β-FNA, relative to DAMGO + BFNA
# [6] = Series C-2, 1 μM compound, relative to DAMGO
# [7] = Series C-2, 1 μM compound, [35S]GTPγS binding to Gαo, striatal membranes
# [8] = FLNA-binding compound 0.01 μM, read-out: Percent Binding Inhibition
# [9] = FLNA-binding compound 0.1 μM, read-out: Percent Binding Inhibition
# [10] = FLNA-binding compound 1 μM, read-out: Percent Binding Inhibition
# [11] = Series B, 0.1 μM compound, relative to DAMGO
# [12] = Series B, 0.1 μM compound, [35S]GTPγS binding to Gαo, striatal membranes
# [13] = Series B, 1 μM compound + 1 μM β-FNA
# [14] = Series B, 1 μM compound + β-FNA, relative to DAMGO + BFNA
# [15] = Series B, 1 μM compound, relative to DAMGO
# [16] = Series B, 1 μM compound, [35S]GTPγS binding to Gαo, striatal membranes
# [17] = read-out: Percent Binding Inhibition, FLNA-binding compound 0.01 μM
# [18] = read-out: Percent Binding Inhibition, FLNA-binding compound 0.1 μM
# [19] = read-out: Percent Binding Inhibition, FLNA-binding compound 1 μM
# [20] = 0.1 μM compound relative to DAMGO
# [21] = 1 μM compound + BFNA relative to DAMGO + BFNA
# [22] = 1 μM compound relative to DAMGO
# [23] = Series C-1, 0.1 μM compound, relative to DAMGO
# [24] = Series C-1, 0.1 μM compound, [35S]GTPγS binding to Gαo, striatal membranes
# [25] = Series C-1, 1 μM compound + 1 μM β-FNA
# [26] = Series C-1, 1 μM compound + β-FNA, relative to DAMGO + BFNA
# [27] = Series C-1, 1 μM compound, relative to DAMGO
# [28] = Series C-1, 1 μM compound, [35S]GTPγS binding to Gαo, striatal membranes
smiles,measurement,setting,value
COc1ccc(S(=O)(=O)N2CCOC23CCN(C(C)C)CC3)cc1 [Compound C0133M],% DAMGO (0.1 μM),mu opiate receptor (MOR); [2],83.2%
same,"MOR agonist activity, percent [35S]GTPγS binding at the stated compound concentration",mu opiate receptor (MOR); [3],139.4%
same,"MOR agonist activity, percent [35S]GTPγS binding at the stated compound concentration",mu opiate receptor (MOR); [4],72.4%
same,% DAMGO + BFNA,mu opiate receptor (MOR); [5],152.4%
same,% DAMGO (1 μM),mu opiate receptor (MOR); [6],96.6%
same,"MOR agonist activity, percent [35S]GTPγS binding at the stated compound concentration",mu opiate receptor (MOR); [7],214.8%
same,inhibition at 0.01 µM,[1]; [8],47.8%
same,inhibition at 0.1 µM,[1]; [9],54.9%
same,inhibition at 1 µM,[1]; [10],58.5%
COc1ccc(OC)c(CCC(=O)CC2c3c(cc4c(c3OC)OCO4)CC[N+]2(C)C)c1 (stereo not drawn) [Compound B0044],% DAMGO (0.1 μM),mu opiate receptor (MOR); [11],49.4%
same,"MOR agonist activity, percent [35S]GTPγS binding at the stated compound concentration",mu opiate receptor (MOR); [12],87.3%
same,"MOR agonist activity, percent [35S]GTPγS binding at the stated compound concentration",mu opiate receptor (MOR); [13],134.6%
same,% DAMGO + BFNA,mu opiate receptor (MOR); [14],511.8%
same,% DAMGO (1 μM),mu opiate receptor (MOR); [15],66.9%
same,"MOR agonist activity, percent [35S]GTPγS binding at the stated compound concentration",mu opiate receptor (MOR); [16],170.0%
same,inhibition at 0.01 µM,[1]; [17],35.2%
same,inhibition at 0.1 µM,[1]; [18],39.5%
same,inhibition at 1 µM,[1]; [19],44.4%
CC1CCC(C(C)C)C(OCC(O)Cn2cccc2)C1 (stereo not drawn) [Compound A0038],"MOR agonist activity ([35S]GTPγS binding), FLNA-Binding Compound as Agonist 0.1 μM",mu opiate receptor (MOR); 0.1 μM compound,176.7%
same,% DAMGO (0.1 μM),mu opiate receptor (MOR); [20],90.1%
same,"MOR agonist activity ([35S]GTPγS binding), FLNA-Binding Compound as Agonist 1 μM",mu opiate receptor (MOR); 1 μM compound,234.5%
same,"MOR agonist activity ([35S]GTPγS binding), FLNA-Binding Compound as Agonist 1 μM + BFNA",mu opiate receptor (MOR),107.0%
same,% DAMGO + BFNA,mu opiate receptor (MOR); [21],144.8%
same,% DAMGO (1 μM),mu opiate receptor (MOR); [22],85.0%
same,inhibition at 0.01 µM,[1]; [17],46.4%
same,inhibition at 0.1 µM,[1]; [18],52.3%
same,inhibition at 1 µM,[1]; [19],56.6%
COc1ccc(S(=O)(=O)N2CCOC23CCN(CC2CC2)CC3)cc1 [Compound C0090M],% DAMGO (0.1 μM),mu opiate receptor (MOR); [2],137.7%
same,"MOR agonist activity, percent [35S]GTPγS binding at the stated compound concentration",mu opiate receptor (MOR); [3],237.0%
same,"MOR agonist activity, percent [35S]GTPγS binding at the stated compound concentration",mu opiate receptor (MOR); [4],41.0%
same,% DAMGO + BFNA,mu opiate receptor (MOR); [5],118.8%
same,% DAMGO (1 μM),mu opiate receptor (MOR); [6],155.2%
same,"MOR agonist activity, percent [35S]GTPγS binding at the stated compound concentration",mu opiate receptor (MOR); [7],341.0%
same,inhibition at 0.01 µM,[1]; [17],42.5%
same,inhibition at 0.1 µM,[1]; [18],52.5%
same,inhibition at 1 µM,[1]; [19],55.8%
O=S(=O)(c1ccc2ccccc2c1)N1CCC2(CC1)OCCN2S(=O)(=O)c1ccc2ccccc2c1 [Compound C0140M],% DAMGO (0.1 μM),mu opiate receptor (MOR); [23],85.8%
same,Concentration of FLNA-Binding Compound as Agonist 0.1 μM,mu opiate receptor (MOR); [24],126.1%
same,Concentration of FLNA-Binding Compound as Agonist 1 μM + BFNA,mu opiate receptor (MOR); [25],83.0%
same,% DAMGO + BFNA,mu opiate receptor (MOR); [26],211.2%
same,% DAMGO (1 μM),mu opiate receptor (MOR); [27],106.5%
same,Concentration of FLNA-Binding Compound as Agonist 1 μM,mu opiate receptor (MOR); [28],215.4%
same,inhibition at 0.01 µM,[1]; [17],42.3%
same,inhibition at 0.1 µM,[1]; [18],49.2%
same,inhibition at 1 µM,[1]; [19],54.4%
CC1CCC(C(C)C)C(OCC(O)CN2CCN(CCN3CCCCC3)CC2)C1 (stereo not drawn) [Compound A0031],"MOR agonist activity ([35S]GTPγS binding), FLNA-Binding Compound as Agonist 0.1 μM",mu opiate receptor (MOR); 0.1 μM compound,178.2%
same,% DAMGO (0.1 μM),mu opiate receptor (MOR); [20],100.9%
same,"MOR agonist activity ([35S]GTPγS binding), FLNA-Binding Compound as Agonist 1 μM",mu opiate receptor (MOR); 1 μM compound,297.0%
same,"MOR agonist activity ([35S]GTPγS binding), FLNA-Binding Compound as Agonist 1 μM + BFNA",mu opiate receptor (MOR),150.9%
same,% DAMGO + BFNA,mu opiate receptor (MOR); [21],573.8%
same,% DAMGO (1 μM),mu opiate receptor (MOR); [22],116.8%
same,inhibition at 0.01 µM,[1]; [8],40.8%
same,inhibition at 0.1 µM,[1]; [9],47.6%
same,inhibition at 1 µM,[1]; [10],52.9%
COCOc1ccc(C(=O)CC2c3c(cc4c(c3OC)OCO4)CC[N+]2(C)C)cc1C (stereo not drawn) [Compound B0041],% DAMGO (0.1 μM),mu opiate receptor (MOR); [11],39.3%
same,"MOR agonist activity, percent [35S]GTPγS binding at the stated compound concentration",mu opiate receptor (MOR); [12],61.6%
same,"MOR agonist activity, percent [35S]GTPγS binding at the stated compound concentration",mu opiate receptor (MOR); [13],41.9%
same,% DAMGO + BFNA,mu opiate receptor (MOR); [14],128.5%
same,% DAMGO (1 μM),mu opiate receptor (MOR); [15],47.2%
same,"MOR agonist activity, percent [35S]GTPγS binding at the stated compound concentration",mu opiate receptor (MOR); [16],109.3%
same,inhibition at 0.01 µM,[1]; [17],44%
same,inhibition at 0.1 µM,[1]; [18],46.8%
same,inhibition at 1 µM,[1]; [19],52.8%
O=S(=O)(c1ccc(Br)c(C(F)(F)F)c1)N1CCC2(CC1)OCCN2S(=O)(=O)c1ccc(Br)c(C(F)(F)F)c1 [Compound C0077],% DAMGO (0.1 μM),mu opiate receptor (MOR); [23],109.5%
same,Concentration of FLNA-Binding Compound as Agonist 0.1 μM,mu opiate receptor (MOR); [24],192.7%
same,Concentration of FLNA-Binding Compound as Agonist 1 μM + BFNA,mu opiate receptor (MOR); [25],136.7%
same,% DAMGO + BFNA,mu opiate receptor (MOR); [26],621.4%
same,% DAMGO (1 μM),mu opiate receptor (MOR); [27],104.9%
same,Concentration of FLNA-Binding Compound as Agonist 1 μM,mu opiate receptor (MOR); [28],265.4%
same,inhibition at 0.01 µM,[1]; [17],45.7%
same,inhibition at 0.1 µM,[1]; [18],47.7%
same,inhibition at 1 µM,[1]; [19],51%
